Laboratory results published in ChEMBL document CHEMBL1140113, “Structural requirements for drug inhibition of the liver specific human organic cation transport protein 1” (J Med Chem, 2008).

target: T1, OCT1 (SLC22A1) (Homo sapiens, UniProt O15245); assay: in vitro; details: HEK293 cells that express human OCT1, probe 4-(4-(dimethylamino)styryl)-N-methylpyridinium
T1 sequence (O15245 whole entry): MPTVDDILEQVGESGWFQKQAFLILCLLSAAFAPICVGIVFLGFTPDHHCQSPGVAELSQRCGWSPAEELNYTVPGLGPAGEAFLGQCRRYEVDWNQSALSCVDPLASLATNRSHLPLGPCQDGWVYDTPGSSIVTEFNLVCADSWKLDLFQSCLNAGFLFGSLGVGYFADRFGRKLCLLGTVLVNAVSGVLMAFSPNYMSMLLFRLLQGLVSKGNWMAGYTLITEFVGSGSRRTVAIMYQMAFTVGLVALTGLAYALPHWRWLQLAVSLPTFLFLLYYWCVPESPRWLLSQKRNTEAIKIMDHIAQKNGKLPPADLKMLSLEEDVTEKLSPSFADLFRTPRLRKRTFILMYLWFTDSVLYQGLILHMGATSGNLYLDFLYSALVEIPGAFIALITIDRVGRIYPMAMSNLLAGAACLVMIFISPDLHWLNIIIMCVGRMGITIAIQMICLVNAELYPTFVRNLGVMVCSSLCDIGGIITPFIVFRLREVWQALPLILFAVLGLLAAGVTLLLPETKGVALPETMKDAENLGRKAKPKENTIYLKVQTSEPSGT

Row | SMILES | inhibition at 100 µM
1 | N=C(N)NC(=O)c1nc(Cl)c(N)nc1N [AMILORIDE] | 68.7%
2 | CN(C)CCC=C1c2ccccc2CCc2ccccc21 [AMITRIPTYLINE] | 78.5%
3 | COc1cc(NS(C)(=O)=O)ccc1Nc1c2ccccc2nc2ccccc12 [AMSACRINE] | 68.4%
4 | CN1CCc2cccc3c2[C@H]1Cc1ccc(O)c(O)c1-3 [APOMORPHINE] | 69%
5 | CC(C)(Cc1c[nH]c2ccccc12)NCC(O)COc1ccccc1C#N (centres undefined) [BUCINDOLOL] | 84.6%
6 | CN(C)CCCN1c2ccccc2Sc2ccc(Cl)cc21 [CHLORPROMAZINE] | 85.1%
7 | CN(C)CC/C=C1/c2ccccc2Sc2ccc(Cl)cc21 [CHLORPROTHIXENE] | 65.4%
8 | CN1CCC[C@@H]1CCO[C@](C)(c1ccccc1)c1ccc(Cl)cc1 [CLEMASTINE] | 78.8%
9 | NS(=O)(=O)c1cc2c(cc1Cl)NCNS2(=O)=O [HYDROCHLOROTHIAZIDE] | -9.8%
10 | CC(C)Cc1ccc(C(C)C(=O)O)cc1 (centres undefined) [IBUPROFEN] | 6.3%
11 | CC(=O)N1CCN(c2ccc(OCC3COC(Cn4ccnc4)(c4ccc(Cl)cc4Cl)O3)cc2)CC1 (centres undefined) [KETOCONAZOLE] | 82.3%
12 | CC(C(=O)O)c1cccc(C(=O)c2ccccc2)c1 (centres undefined) [KETOPROFEN] | -9.4%
13 | N[C@@H](Cc1ccc(O)c(O)c1)C(=O)O [LEVODOPA] | 21.7%
14 | N[C@@H](Cc1cc(I)c(Oc2cc(I)c(O)c(I)c2)c(I)c1)C(=O)O [LEVOTHYROXINE] | 12.7%
15 | CCN(CC)CC(=O)Nc1c(C)cccc1C [LIDOCAINE] | -2.3%
16 | CCOC(=O)N1CCC(=C2c3ccc(Cl)cc3CCc3cccnc32)CC1 [LORATADINE] | 51.8%
17 | OC[C@@H](O)[C@@H](O)[C@H](O)[C@H](O)CO [MANNITOL] | -1.4%
18 | Cc1cccc(CN2CCN(C(c3ccccc3)c3ccc(Cl)cc3)CC2)c1 (centres undefined) [MECLIZINE] | 16.4%
19 | CC(C)NCC(O)c1cc(O)cc(O)c1 (centres undefined) [METAPROTERENOL] | 12.6%
20 | Cn1cc[nH]c1=S [METHIMAZOLE] | 11.6%
21 | CN(Cc1cnc2nc(N)nc(N)c2n1)c1ccc(C(=O)N[C@@H](CCC(=O)O)C(=O)O)cc1 [METHOTREXATE] | 26.3%

Row | SMILES | inhibition at 100 µM
22 | C[C@](N)(Cc1ccc(O)c(O)c1)C(=O)O [METHYLDOPA] | -7.2%
23 | COCCc1ccc(OCC(O)CNC(C)C)cc1 (centres undefined) [METOPROLOL] | 32.4%
24 | CN1CCN2c3ccccc3Cc3ccccc3C2C1 (centres undefined) [MIANSERIN] | 48.4%
25 | O=C1CC[C@@]2(O)[C@H]3Cc4ccc(O)c5c4[C@@]2(CCN3CC2CC2)[C@H]1O5 [NALTREXONE] | 40.3%
26 | CN(C)C(=O)Oc1cccc([N+](C)(C)C)c1 [NEOSTIGMINE BROMIDE] | 19.4%
27 | CC1COc2c(N3CCN(C)CC3)c(F)cc3c(=O)c(C(=O)O)cn1c23 (centres undefined) [OFLOXACIN] | 21.1%
28 | Cc1ccccc1C(OCCN(C)C)c1ccccc1 (centres undefined) [ORPHENADRINE] | 77.6%
29 | CCN(CC)CC#CCOC(=O)C(O)(c1ccccc1)C1CCCCC1 (centres undefined) [OXYBUTYNIN] | 75.7%
30 | CC(=O)O[C@H]1C(=O)[C@@]2(C)[C@H]([C@H](OC(=O)c3ccccc3)[C@]3(O)C[C@H](OC(=O)[C@H](O)[C@@H](NC(=O)c4ccccc4)c4ccccc4)C(C)=C1C3(C)C)[C@]1(OC(C)=O)CO[C@@H]1C[C@@H]2O [PACLITAXEL] | 7.1%
31 | CC(=O)O[C@H]1C[C@@H]2CC[C@@H]3[C@H](CC[C@@]4(C)[C@H]3C[C@H]([N+]3(C)CCCCC3)[C@@H]4OC(C)=O)[C@@]2(C)C[C@@H]1[N+]1(C)CCCCC1 [PANCURONIUM] | -10.3%
32 | COc1ccc(Cc2nccc3cc(OC)c(OC)cc23)cc1OC [PAPAVERINE] | 66.3%
33 | CCC1(c2ccccc2)C(=O)NC(=O)NC1=O [PHENOBARBITAL] | -6%
34 | O=C1NC(=O)C(c2ccccc2)(c2ccccc2)N1 [PHENYTOIN] | -2%
35 | CC[C@@H]1C(=O)OC[C@@H]1Cc1cncn1C [PILOCARPINE] | 17%
36 | CC[C@H](C)C(=O)O[C@H]1C[C@H](O)C=C2C=C[C@H](C)[C@H](CC[C@@H](O)C[C@@H](O)CC(=O)O)[C@H]21 [PRAVASTATIN] | 5%
37 | C[C@]12C=CC(=O)C=C1CC[C@@H]1[C@@H]2C(=O)C[C@@]2(C)[C@H]1CC[C@]2(O)C(=O)CO [PREDNISONE] | 23.3%
38 | CCCN(CCC)S(=O)(=O)c1ccc(C(=O)O)cc1 [PROBENECID] | -8.9%
39 | CCN(CC)CCNC(=O)c1ccc(N)cc1 [PROCAINAMIDE] | 26.5%
40 | C=C[C@H]1C[N@@]2CC[C@H]1C[C@@H]2[C@@H](O)c1ccnc2ccc(OC)cc12 [QUINIDINE] | 62.9%
41 | C=C[C@H]1C[N@@]2CC[C@H]1C[C@H]2[C@H](O)c1ccnc2ccc(OC)cc12 [QUININE] | 60.2%
42 | CNC(=C[N+](=O)[O-])NCCSCc1ccc(CN(C)C)o1 [RANITIDINE] | 28.8%

Row | SMILES | inhibition at 100 µM
43 | CO[C@H]1/C=C/O[C@@]2(C)Oc3c(C)c(O)c4c(O)c(c(/C=N/N5CCN(C)CC5)c(O)c4c3C2=O)NC(=O)/C(C)=C\C=C\[C@H](C)[C@H](O)[C@@H](C)[C@@H](O)[C@@H](C)[C@H](OC(C)=O)[C@@H]1C [RIFAMPIN] | 26.2%
44 | Cc1nc2n(c(=O)c1CCN1CCC(c3noc4cc(F)ccc34)CC1)CCCC2 [RISPERIDONE] | 39.3%
45 | CN1[C@@H]2C[C@@H](OC(=O)[C@H](CO)c3ccccc3)C[C@H]1[C@@H]1O[C@@H]12 [SCOPOLAMINE] | 43.9%
46 | CCC(C)(C)C(=O)O[C@H]1C[C@@H](C)C=C2C=C[C@H](C)[C@H](CC[C@@H]3C[C@@H](O)CC(=O)O3)[C@H]21 [SIMVASTATIN] | 22.6%
47 | CC(C)NCC(O)c1ccc(NS(C)(=O)=O)cc1 (centres undefined) [SOTALOL] | 31.8%
48 | CC(=O)S[C@@H]1CC2=CC(=O)CC[C@]2(C)[C@H]2CC[C@@]3(C)[C@@H](CC[C@@]34CCC(=O)O4)[C@H]12 [SPIRONOLACTONE] | 87.9%
49 | O=C(O)c1cc(/N=N/c2ccc(S(=O)(=O)Nc3ccccn3)cc2)ccc1O [SULFASALAZINE] | -3.7%
50 | CC/C(=C(\c1ccccc1)c1ccc(OCCN(C)C)cc1)c1ccccc1 [TAMOXIFEN] | 72.1%
51 | CC(C)(C)NCC(O)c1cc(O)cc(O)c1 (centres undefined) [TERBUTALINE] | 2.6%
52 | CC(C)(C)c1ccc(C(O)CCCN2CCC(C(O)(c3ccccc3)c3ccccc3)CC2)cc1 (centres undefined) [TERFENADINE] | 65.4%
53 | CN(C)[C@@H]1C(O)=C(C(N)=O)C(=O)[C@@]2(O)C(O)=C3C(=O)c4c(O)cccc4[C@@](C)(O)[C@H]3C[C@@H]12 [TETRACYCLINE] | 10.4%
54 | Cn1c(=O)c2[nH]cnc2n(C)c1=O [THEOPHYLLINE] | -4.4%
55 | CC(C)(C)NC[C@H](O)COc1nsnc1N1CCOCC1 [TIMOLOL] | 39%
56 | CCS(=O)(=O)CCn1c([N+](=O)[O-])cnc1C [TINIDAZOLE] | 14.2%
57 | Cc1c(C)c2c(c(C)c1O)CCC(C)(COc1ccc(CC3SC(=O)NC3=O)cc1)O2 (centres undefined) [TROGLITAZONE] | 48.2%
58 | CCCC(CCC)C(=O)O [VALPROIC ACID] | 19.6%
59 | CN[C@H](CC(C)C)C(=O)N[C@H]1C(=O)N[C@@H](CC(N)=O)C(=O)N[C@H]2C(=O)N[C@H]3C(=O)N[C@H](C(=O)N[C@H](C(=O)O)c4cc(O)cc(O)c4-c4cc3ccc4O)[C@H](O)c3ccc(c(Cl)c3)Oc3cc2cc(c3O[C@@H]2O[C@H](CO)[C@@H](O)[C@H](O)[C@H]2O[C@H]2C[C@](C)(N)[C@H](O)[C@H](C)O2)Oc2ccc(cc2Cl)[C@H]1O [VANCOMYCIN] | 7.1%
60 | CC[C@]1(O)C[C@@H]2CN(CCc3c([nH]c4ccccc34)[C@@](C(=O)OC)(c3cc4c(cc3OC)N(C)[C@H]3[C@@](O)(C(=O)OC)[C@H](OC(C)=O)[C@]5(CC)C=CCN6CC[C@]43[C@@H]65)C2)C1 [VINBLASTINE] | 1.9%
61 | CC(=O)CC(c1ccccc1)c1c(O)c2ccccc2oc1=O (centres undefined) [WARFARIN] | 4%
62 | CC(=O)N[C@H]1[C@H]([C@H](O)[C@H](O)CO)OC(C(=O)O)=C[C@@H]1N=C(N)N [ZANAMIVIR] | 2%
63 | Cc1cn([C@H]2C[C@H](N=[N+]=[N-])[C@@H](CO)O2)c(=O)[nH]c1=O [ZIDOVUDINE] | 4.7%

same assay, conditions: hek293

Row | SMILES | inhibition at 100 µM
64 | CN(C)CCCC1(c2ccc(F)cc2)OCc2cc(C#N)ccc21 (centres undefined) [CITALOPRAM] | 52%
65 | NNc1nncc2ccccc12 [HYDRALAZINE] | 6.5%
66 | CN1CCC[C@H]1c1cccnc1 [NICOTINE] | -3.7%
67 | CC(=O)[C@H]1CC[C@H]2[C@@H]3CCC4=CC(=O)CC[C@]4(C)[C@H]3CC[C@]12C [PROGESTERONE] | 55.7%
68 | CC(C)c1cccc(C(C)C)c1O [PROPOFOL] | -17.9%
69 | OC(CCN1CCCCC1)(c1ccccc1)C1CCCCC1 (centres undefined) [TRIHEXYPHENIDYL] | 79.4%
70 | COc1cc(Cc2cnc(N)nc2N)cc(OC)c1OC [TRIMETHOPRIM] | 58.1%

target: T2, Solute carrier family 22 member 1 (Homo sapiens, UniProt O15245); assay: not given; assay type: cell-based, HEK293; details: not given
T2 sequence (O15245 whole entry): T1 sequence (O15245 whole entry)

Row | SMILES | IC50
71 | N=C(N)NC(=O)c1nc(Cl)c(N)nc1N [AMILORIDE] | 57 µM
72 | CN(C)CCC=C1c2ccccc2CCc2ccccc21 [AMITRIPTYLINE] | 16.9 µM
73 | COc1cc(NS(C)(=O)=O)ccc1Nc1c2ccccc2nc2ccccc12 [AMSACRINE] | 5 µM
74 | CN1CCc2cccc3c2[C@H]1Cc1ccc(O)c(O)c1-3 [APOMORPHINE] | 20.8 µM
75 | CC(C)(Cc1c[nH]c2ccccc12)NCC(O)COc1ccccc1C#N (centres undefined) [BUCINDOLOL] | 27.2 µM
76 | CN(C)CCCN1c2ccccc2Sc2ccc(Cl)cc21 [CHLORPROMAZINE] | 27 µM
77 | CN(C)CC/C=C1/c2ccccc2Sc2ccc(Cl)cc21 [CHLORPROTHIXENE] | 77.8 µM
78 | CN(C)CCCC1(c2ccc(F)cc2)OCc2cc(C#N)ccc21 (centres undefined) [CITALOPRAM] | 18.8 µM
79 | CN1CCC[C@@H]1CCO[C@](C)(c1ccccc1)c1ccc(Cl)cc1 [CLEMASTINE] | 4.9 µM
